The text below walks through data of US20210015752A1, “METHODS FOR PRODUCING PARTICLES OF AN ACTIVE INGREDIENT” (Savior Lifetec Corporation, priority 2017, published 2021).

Type in all cases: physicochemical
Series [1] is described as follows: Emulsion test of L-ascorbic acid in various types of solvents. The note with it: stirred 3 hr. The source says:
Two combinations of solvents gave emulsified solutions, there were tetrahydrofuran/heptanes and methanol/water

Series [2] is described as follows: Solubility test of paliperidone palmitate in various types of solvents. The note with it: ratio 1/15 (v/w), 30° C., stirred about 0.5 hour. The protocol: The solubility of paliperidone palmitate in various types of solvents was evaluated. To this purpose, paliperidone palmitate and the designated solvent were mixed in a ratio of 1/15 (v/w) at 30° C. and the mixture was stirred for about 0.5 hour.

Series [3] can be described thus: Emulsion test of paliperidone palmitate in various types of solvents. Conditions: stirred 3 hr. The protocol: Paliperidone palmitate was dissolved in DCM, THF, or toluene at 30° C. and stirred for about 0.5 hour to form a first solution, then a second solvent (as indicated in Table 2) was added and stirred for 3 hr. As the data in Table 2 indicated, among the 36 combinations (i.e., the combination of one of the 3 first solutions and one of the second solvents), only three combinations gave satisfied emulsified solutions, which comprised particles of paliperidone palmitate. The 3 combinations were THF/water, toluene/heptanes, and toluene/hexane, respectively.

Take `O=C1O[C@H]([C@@H](O)CO)C(O)=C1O` [L-ascorbic acid]: the “Emulsion test result of the first solution containing L-ascorbic acid with the second solvent” value is reported as “emulsified” in series [1] (first solvent methanol, second solvent water) and “emulsified” in series [1] (first solvent tetrahydrofuran, second solvent heptanes).

`CCCCCCCCCCCCCCCC(=O)OC1CCCn2c1nc(C)c(CCN1CCC(c3noc4cc(F)ccc34)CC1)c2=O` (centres unmarked) [paliperidone palmitate]: the “Solubility of paliperidone palmitate” value in series [2] (solvent ACN) is “insoluble”; in series [2] (solvent Acetone) it was “insoluble”; in series [2] (solvent DCM) it was “soluble”; in series [2] (solvent EtOAc) it was “insoluble”; in series [2] (solvent EtOH), “insoluble”; in series [2] (solvent Heptanes), “insoluble”. Moreover, the “Solubility of paliperidone palmitate” value in series [2] (solvent Hexane) is listed as “insoluble”; in series [2] (solvent IPA), “insoluble”; in series [2] (solvent MTBE) it was “insoluble”; in series [2] (solvent THF) it was “soluble”; in series [2] (solvent Toluene), “soluble”; in series [2] (solvent Water) it was “insoluble”. In addition, the “Solubility of the second solvent in the first solution containing paliperidone palmitate” value (“Solubility of the second solvent” for short) in series [3] (first solvent DCM, second solvent ACN) was “miscible”; in series [3] (first solvent DCM, second solvent Acetone), “miscible”; in series [3] (first solvent DCM, second solvent EtOAc), “miscible”; in series [3] (first solvent DCM, second solvent EtOH), “miscible”; in series [3] (first solvent DCM, second solvent Heptanes), “miscible”; in series [3] (first solvent DCM, second solvent Hexane), “miscible”. Moreover, the “Solubility of the second solvent” value was “miscible” in series [3] (first solvent DCM, second solvent IPA); “miscible” in series [3] (first solvent DCM, second solvent MTBE); “miscible” in series [3] (first solvent DCM, second solvent THF); “miscible” in series [3] (first solvent DCM, second solvent Toluene); “layered” in series [3] (first solvent DCM, second solvent Water); “miscible” in series [3] (first solvent THF, second solvent ACN). The “Solubility of the second solvent” value is “miscible” in series [3] (first solvent THF, second solvent Acetone); “miscible” in series [3] (first solvent THF, second solvent DCM); “miscible” in series [3] (first solvent THF, second solvent EtOAc); “miscible” in series [3] (first solvent THF, second solvent EtOH); “miscible” in series [3] (first solvent THF, second solvent Heptanes); “miscible” in series [3] (first solvent THF, second solvent Hexane). For the same molecule, the “Solubility of the second solvent” value is “miscible” in series [3] (first solvent THF, second solvent IPA); “miscible” in series [3] (first solvent THF, second solvent MTBE); “miscible” in series [3] (first solvent THF, second solvent Toluene); “emulsified” in series [3] (first solvent THF, second solvent Water); “miscible” in series [3] (first solvent Toluene, second solvent ACN); “miscible” in series [3] (first solvent Toluene, second solvent Acetone). Besides, the “Solubility of the second solvent” value in series [3] (first solvent Toluene, second solvent DCM) is “miscible”; in series [3] (first solvent Toluene, second solvent EtOAc) it was “miscible”; in series [3] (first solvent Toluene, second solvent EtOH), “miscible”; in series [3] (first solvent Toluene, second solvent Heptanes), “emulsified”; in series [3] (first solvent Toluene, second solvent Hexane) it was “emulsified”; in series [3] (first solvent Toluene, second solvent IPA), “miscible”. Also, the “Solubility of the second solvent” value in series [3] (first solvent Toluene, second solvent MTBE) was “miscible”; in series [3] (first solvent Toluene, second solvent THF) it was “miscible”; in series [3] (first solvent Toluene, second solvent Water), “layered”.
